Measured values taken from patent US12157730B2, “Heteroaryl derivative, method for producing same, and pharmaceutical composition comprising same as effective component” (VORONOI INC., priority 2019, dated 2024).

Biological target: T1, Ba/F3 cell EGFR Exon20 ins NPH (Homo sapiens, UniProt P00533, INS773NPH)
T1 construct: expressed in transfected cells; host or cells: Ba/F3
Assay: Ba/F3 cell proliferation suppression, EGFR Exon20 ins NPH
Type: cell-based
Settings: GI50 class; Ba/F3 cell line with NPH inserted at Exon20 of EGFR; 72 hours
How it was run: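 Growth suppression determined as GI50 following 72 h exposure across 12 concentrations up to 50 um, with viability by luminescent ATP assay (CellTiter-Glo).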

Row | SMILES | Ba/F3 (NPH) Activity
1 | C=CC(=O)Nc1cc(Nc2cc(N3OCC[C@@H]3c3cc(F)cc(Cl)c3)ncn2)c(OC)cc1N1CCC(N2CCO[C@@H](C)C2)CC1 [compound 595, N-(5-((6-((R)-3-(3-chloro-5-fluorophenyl)isoxazolidine-2-yl)pyrimidine-4-yl)amino)-4-methoxy-2-(4-((S)-2-methylmorpholino)piperidine-1-yl)phenyl) acrylamide] | A (GI50 < 50 nM)
2 | C=CC(=O)Nc1cc(Nc2cc(N3OCC[C@@H]3c3ccc4ccccc4c3)ncn2)c(OC)cc1N1CCC(N2CCN(C(C)C)CC2)CC1 [compound 550, N-(2-(4-(4-isopropylpiperazine-1-yl)piperidine-1-yl)-4-methoxy-5-((6-((R)-3-(naphthalene-2-yl)isoxazolidine-2-yl)pyrimidine-4-yl)amino)phenyl)acrylamide] | B (50 nM ≤ GI50 < 500 nM)
3 | C=CC(=O)Nc1cc(Nc2cc(N3OCC[C@@H]3c3cccc(F)c3F)ncn2)c(OC)cc1N1CCN(C)C[C@@H]1C [compound 886, N-(5-((6-((R)-3-(2,3-difluorophenyl)isoxazolidine-2-yl)pyrimidine-4-yl)amino)-2-((S)-2,4-dimethylpiperazine-1-yl)-4-methoxyphenyl) acrylamide] | A (GI50 < 50 nM)
4 | C=CC(=O)Nc1cc(Nc2cc(N3OCC[C@@H]3c3ccc(F)c(Cl)c3)ncn2)c(OC)cc1N1CCC(N2CCN(C3CC3)CC2)CC1 [Example 59, N-(5-((6-((R)-3-(3-chloro-4-fluorophenyl)isoxazolidine-2-yl)pyrimidine-4-yl)amino)-2-(4-(4-cyclopropylpiperazine-1-yl)piperidine-1-yl)-4-methoxyphenyl) acrylamide;] | A (GI50 < 50 nM)
5 | C=CC(=O)Nc1cc(Nc2cc(N3OCC[C@@H]3c3cc(F)cc(Cl)c3)ncn2)c(OC)cc1N1CCC(N2C[C@@H]3CCN(C)[C@@H]3C2)CC1 [compound 540, N-(5-((6-((R)-3-(3-chloro-5-fluorophenyl)isoxazolidine-2-yl)pyrimidine-4-yl)amino)-4-methoxy-2-(4-((3aS,6aS)-1-methylhexahydropyrrolo [3,4-b]pyrrole-5(1H)-yl)piperidine-1-yl)phenyl)acrylamide] | A (GI50 < 50 nM)
6 | C=CC(=O)Nc1cc(Nc2cc(N3OCC[C@@H]3c3ccccc3)ncn2)c(OC)cc1N1CCC(N2C[C@@H]3C[C@H]2CN3CC)CC1 [compound 737, N-(2-(4-((1S,4S)-5-ethyl-2,5-diazabicyclo [2.2.1]heptane-2-yl)piperidine-1-yl)-4-methoxy-5-((6-((R)-3-phenylisoxazolidine-2-yl)pyrimidine-4-yl)amino)phenyl) acrylamide] | A (GI50 < 50 nM)
7 | C=CC(=O)Nc1cc(Nc2cc(N3OCC[C@@H]3c3cccc(F)c3F)ncn2)c(OC)cc1N1CCC(N2CC3CCC(C2)N3C2CC2)CC1 [Example 135, N-(2-(4-(8-cyclopropyl-3,8-diazabicyclo[3.2.1]octan-3-yl)piperidine-1-yl)-5-((6-((R)-3-(2,3-difluorophenyl)isoxazolidine-2-yl)pyrimidine-4-yl)amino)-4-methoxyphenyl) acrylamide] | A (GI50 < 50 nM)
8 | C=CC(=O)Nc1cc(Nc2cc(N3OCC[C@@H]3c3cccc(C(F)(F)F)c3)ncn2)c(OC)cc1N1CC[C@@H](N(C)C)C1 [compound 505, N-(2-((R)-3-(dimethylamino)pyrolidine-1-yl)-4-methoxy-5-((6-((R)-3-(3-(trifluoromethyl)phenyl)isoxazolidine-2-yl)pyrimidine-4-yl)amino)phenyl)acrylamide] | A (GI50 < 50 nM)
9 | C=CC(=O)Nc1cc(Nc2cc(N3OCC[C@@H]3c3ccc(F)cc3F)ncn2)c(OC)cc1N1CCC(N2CCC(N(C)C)CC2)CC1 [compound 478, N-(5-((6-((R)-3-(2,4-difluorophenyl)isoxazolidine-2-yl)pyrimidine-4-yl)amino)-2-(4-(dimethylamino)-[1,4'-bipiperidine]-1'-yl)-4-methoxyphenyl) acrylamide] | A (GI50 < 50 nM)
10 | C=CC(=O)Nc1cc(Nc2cc(N3OCC[C@@H]3c3cc(F)cc(F)c3)ncn2)c(OC)cc1N1CCC(N2CCOC[C@H]2C)CC1 [compound 842, N-(5-((6-((R)-3-(3,5-difluorophenyl)isoxazolidine-2-yl)pyrimidine-4-yl)amino)-4-methoxy-2-(4-((R)-3-methylmorpholino)piperidine-1-yl)phenyl) acrylamide] | A (GI50 < 50 nM)
11 | C=CC(=O)Nc1cc(Nc2cc(N3OCC[C@@H]3c3cccc(F)c3F)ncn2)c(OC)cc1N1CCC(N2CCN(CC)CC2)CC1 [compound 922] | A (GI50 < 50 nM)
12 | C=CC(=O)Nc1cc(Nc2cc(N3OCC[C@@H]3Cc3ccccc3)ncn2)c(OC)cc1N1CCN(C2CCCC2)CC1 [compound 972, N-(5-((6-((S)-3-benzylisoxazolidine-2-yl)pyrimidine-4-yl)amino)-2-(4-cyclopentylpiperazine-1-yl)-4-methoxyphenyl) acrylamide] | A (GI50 < 50 nM)
13 | C=CC(=O)Nc1cc(Nc2cc(N3OCC[C@@H]3c3ccc(F)c(Cl)c3)ncn2)c(OC)cc1N1CCC(N2CCN(C3CC3)[C@@H](C)C2)CC1 [Example 177, N-(5-((6-((R)-3-(3-chloro-4-fluorophenyl)isoxazolidine-2-yl)pyrimidine-4-yl)amino)-2-(4-((S)-4-cyclopropyl-3-methylpiperazine-1-yl)piperidine-1-yl)-4-methoxyphenyl) acrylamide] | A (GI50 < 50 nM)
14 | C=CC(=O)Nc1cc(Nc2cc(N3OCC[C@@H]3c3cc(F)cc(F)c3)ncn2)c(OC)cc1N1CCC(N2CCN(CC3CC3)CC2)CC1 [Example 92, N-(2-(4-(4-(cyclopropylmethyl)piperazine-1-yl)piperidine-1-yl)-5-((6-((R)-3-(3,5-difluorophenyl)isoxazolidine-2-yl)pyrimidine-4-yl)amino)-4-methoxyphenyl) acrylamide] | A (GI50 < 50 nM)
15 | C=CC(=O)Nc1cc(Nc2cc(N3OCC[C@@H]3c3cc(F)cc(F)c3)ncn2)c(OC)cc1N1C[C@H]2CCN(C)[C@H]2C1 [compound 890, N-(5-((6-((R)-3-(3,5-difluorophenyl)isoxazolidine-2-yl)pyrimidine-4-yl)amino)-4-methoxy-2-((3aR,6aR)-1-methylhexahydropyrrolo [3,4-b]pyrrole-5(1H)-yl)phenyl) acrylamide] | A (GI50 < 50 nM)
16 | C=CC(=O)Nc1cc(Nc2cc(N3OCC[C@@H]3c3cccc4ccccc34)ncn2)c(OC)cc1N1CCC(N2C[C@@H]3C[C@H]2CO3)CC1 [compound 489, N-(2-(4-((1S,4S)-2-oxa-5-azabicyclo[2.2.1]heptane-5-yl)piperidine-1-yl)-4-methoxy-5-((6-((R)-3-(naphthalene-1-yl)isoxazolidine-2-yl)pyrimidine-4-yl)amino)phenyl)acrylamide] | A (GI50 < 50 nM)
17 | C=CC(=O)Nc1cc(Nc2cc(N3OCC[C@@H]3Cc3ccccc3)ncn2)c(OC)cc1N1CCN(C2CC2)CC1 [compound 952, N-(5-((6-((S)-3-benzylisoxazolidine-2-yl)pyrimidine-4-yl)amino)-2-(4-cyclopropylpiperazine-1-yl)-4-methoxyphenyl) acrylamide] | A (GI50 < 50 nM)
18 | C=CC(=O)Nc1cc(Nc2cc(N3OCC[C@@H]3c3cccc(C#N)c3)ncn2)c(OC)cc1N1CCC(N2CCN(C3CC3)[C@H](C)C2)CC1 [Example 126, N-(5-((6-((R)-3-(3-cyanophenyl)isoxazolidine-2-yl)pyrimidine-4-yl)amino)-2-(4-((R)-4-cyclopropyl-3-methylpiperazine-1-yl)piperidine-1-yl)-4-methoxyphenyl) acrylamide] | A (GI50 < 50 nM)
19 | C=CC(=O)Nc1cc(Nc2cc(N3OCC[C@@H]3c3c(F)ccc(F)c3F)ncn2)c(OC)cc1N1CCC(N2C[C@@H]3C[C@H]2CO3)CC1 [compound 642, N-(2-(4-((1S,4S)-2-oxa-5-azabicyclo[2.2.1]heptane-5-yl)piperidine-1-yl)-4-methoxy-5-((6-((R)-3-(2,3,6-trifluorophenyl)isoxazolidine-2-yl)pyrimidine-4-yl)amino)phenyl)acrylamide] | A (GI50 < 50 nM)
20 | C=CC(=O)Nc1cc(Nc2cc(N3OCC[C@@H]3c3ccc(F)c(F)c3)ncn2)c(OC)cc1N1CCC(N2CCOCC2)CC1 [compound 503, N-(5-((6-((R)-3-(3,4-difluorophenyl)isoxazolidine-2-yl)pyrimidine-4-yl)amino)-4-methoxy-2-(4-morpholinopiperidine-1-yl)phenyl)acrylamide] | A (GI50 < 50 nM)
21 | C=CC(=O)Nc1cc(Nc2cc(N3OCC[C@@H]3c3cccc(Cl)c3Cl)ncn2)c(OC)cc1N1C[C@H]2C[C@@H]1CO2 [compound 523, N-(2-((1R,4R)-2-oxa-5-azabicyclo[2.2.1]heptane-5-yl)-5-((6-((R)-3-(2,3-dichlorophenyl)isoxazolidine-2-yl)pyrimidine-4-yl)amino)-4-methoxyphenyl) acrylamide] | A (GI50 < 50 nM)
22 | C=CC(=O)Nc1cc(Nc2cc(N3OCC[C@@H]3c3ccccc3)ncn2)c(OC)cc1N1CCN(C2CCCC2)CC1 [Example 279, N-(2-(4-cyclopentylpiperazine-1-yl)-4-methoxy-5-((6-((R)-3-phenylisoxazolidine-2-yl)pyrimidine-4-yl)amino)phenyl) acrylamide] | A (GI50 < 50 nM)
23 | C=CC(=O)Nc1cc(Nc2cc(N3OCC[C@@H]3c3ccc(Cl)c(F)c3)ncn2)c(OC)cc1N1C[C@@H]2C[C@H]1CO2 [compound 862, N-(2-((1S,4S)-2-oxa-5-azabicyclo [2.2.1]heptane-5-yl)-5-((6-((R)-3-(4-chloro-3-fluorophenyl)isoxazolidine-2-yl)pyrimidine-4-yl)amino)-4-methoxyphenyl) acrylamide] | A (GI50 < 50 nM)
